The values below come from article PMC5935597 (Bioorganic & medicinal chemistry, 2018).

In brackets after ≈: the same amount, converted by molar mass. Like-named read-outs stand apart in the source and are kept apart here.

In assay [1] the test system is H. capsulatum. The settings on record: read-out: H. capsulatum IC50; cited from earlier work.
Assay [2] concerns C. neoformans (H99 strain). The settings on record: read-out: C. neoformans (H99 strain) IC50; cited from earlier work.
The subject of another assay is Candida albicans. As to conditions: cited from earlier work.
Another assay concerns Aspergillus fumigatus. As to conditions: cited from earlier work.
In assay [3] the test system is C. neoformans (H99 strain). The assay can be described thus: microbe, parasite or virus in culture. Format: cell-based, Cryptococcus neoformans.
In assay [4] the test system is H. capsulatum. Format: cell-based, Histoplasma capsulatum. As to conditions: for times more active than 41F5 against H. capsulatum: relative to 41F5; for activity against H. capsulatum evaluated comparatively at pH 5 and pH 7: pH 5 versus pH 7 (SM-S.2).
The subject of the next assay is Blastomyces dermatitidis. As to conditions: cited from earlier work.

As for `O=C(CCC1CCCCC1)Nc1ncc(Cc2cccc3ccccc23)s1` [A], the 50% inhibitory concentration (IC50) in the assay on H. capsulatum [1] is 400 nM; in assay [2] it was over 10000 nM.

For `Cc1ccc(Oc2ccccc2-c2csc(N=C3NCCCN3)n2)c(C)c1` [Abafungin], the “activity against Candida albicans” value in the assay on Candida albicans is “active”. For the same compound, the “activity against Aspergillus fumigatus” value in the assay with Aspergillus fumigatus is given as “active”.

For `O=C(Nc1ncc(Cc2ccccc2)s1)C1CCCCC1` [B], the half-inhibitory concentration (IC50) with H. capsulatum [1] is 1600 nM.

Consider `O=C(CCC1CCCCC1)Nc1ncc(Cc2ccccc2)s1` [C], for which the IC50 with H. capsulatum [1] was 700 nM; in assay [2], over 10000 nM.

Take `O=C(Nc1ncc(Cc2cccc3ccsc23)s1)C1CCCCC1` [Compound 17b]: the “times more active than 41F5 against C. neoformans” value in assay [3] is on record as ~ 2 times. For the same compound, in the assay on H. capsulatum [4], the “times more active than 41F5 against H. capsulatum” value is on record as ~ 2 times.

For `O=C(CCC1CCCCC1)Nc1ncc(Cc2cccc3nsnc23)s1` [Compound 20a], the “activity against C. neoformans evaluated comparatively at pH 5 and pH 7” value in assay [3] is “No significant differences”. In the assay on H. capsulatum [4], the “activity against H. capsulatum evaluated comparatively at pH 5 and pH 7” value is “No significant differences”.

With `O=C(CCC1CCCCC1)Nc1ncc(Cc2cccc3sccc23)s1` [Compound 22a], the “times more active than 41F5 against H. capsulatum” value with H. capsulatum [4] is recorded as ~ 2 times.

Regarding `O=C(Nc1ncc(Cc2cccc3sccc23)s1)C1CCCCC1` [Compound 22b], in assay [3], the “times more active than 41F5 against C. neoformans” value is ~ 2 times. The 50% inhibitory concentration (IC50) in assay [3] (Cryptococcus neoformans, read-out: C. neoformans (H99 strain) IC50 [±SD]) turned out to be 370 nM. Besides, the MIC in assay [3] (Cryptococcus neoformans, read-out: C. neoformans (H99 strain) MIC) was 1.25 µM (≈ 0.446 µg/mL). Further, the “times more active than 41F5 against H. capsulatum” value with H. capsulatum [4] is given as ~ 2 times.

Consider `O=C(CCC1CCCCC1)Nc1ncc(Cc2csc3ccccc23)s1` [Compound 23a], for which, in the assay on H. capsulatum [4], the “times more active than 41F5 against H. capsulatum” value was ~ 2 times.

In the case of `O=C(Nc1ncc(Cc2cccc3c2CCC3)s1)C1CCCCC1` [Compound 26b], the “times more active than 41F5 against C. neoformans” value in assay [3] is listed as ~ 2 times. Besides, in the assay on H. capsulatum [4], the “times more active than 41F5 against H. capsulatum” value is recorded as ~ 2 times.

Consider `O=C(CCC1CCCCC1)Nc1ncc(Cc2ccnc3ccccc23)s1` [Compound 28a], for which, in assay [3], the “activity against C. neoformans evaluated comparatively at pH 5 and pH 7” value is reported as “No significant differences”. Also, the “activity against H. capsulatum evaluated comparatively at pH 5 and pH 7” value with H. capsulatum [4] was “No significant differences”.

On to `O=C(CCC1CCCCC1)Nc1ncc(Cc2ccccn2)s1` [Compound 29a], for which the “activity against C. neoformans evaluated comparatively at pH 5 and pH 7” value in assay [3] is given as “No significant differences”. For the same compound, the “activity against H. capsulatum evaluated comparatively at pH 5 and pH 7” value in the assay on H. capsulatum [4] is given as “No significant differences”.

In the case of `O=C(Nc1ncc(Cc2cccnc2)s1)C1CCCCC1` [Compound 31], the “activity against C. neoformans evaluated comparatively at pH 5 and pH 7” value in assay [3] is “No significant differences”. The “activity against H. capsulatum evaluated comparatively at pH 5 and pH 7” value in the assay on H. capsulatum [4] is “No significant differences”.

Regarding `O=C(CCC1CCCCC1)Nc1ncc(Cc2ccncc2)s1` [Compound 32a], the “activity against C. neoformans evaluated comparatively at pH 5 and pH 7” value in assay [3] is recorded as “No significant differences”. The “activity against H. capsulatum evaluated comparatively at pH 5 and pH 7” value in the assay on H. capsulatum [4] is reported as “No significant differences”.

For the compound `O=C(c1cnc(NC(=O)C2CCCCC2)s1)c1cccc2ccccc12` [Compound 36b], in the assay with H. capsulatum [4], the “times more active than 41F5 against H. capsulatum” value is listed as ~ 2 times.

On to `O=C(Nc1ncc(Cc2cccc3ccccc23)s1)C1CCCCC1` [Compound 41F5, N-[5-(1-naphthalenylmethyl)-2-thiazolyl]cyclohexanecarboxamide], for which the “activity against Candida albicans” value in the assay with Candida albicans is “inactive”. Also, the “activity against Blastomyces dermatitidis” value with Blastomyces dermatitidis was “inactive”. Besides, the “activity against Aspergillus fumigatus” value with Aspergillus fumigatus was “inactive”. The half-inhibitory concentration (IC50) (in the assay with H. capsulatum [1]; in assay [2]) was 400 nM throughout.
